# Test results published in patent publication EP1189923B1, “AROMATIC AND HETEROCYCLIC DERIVATIVES OF PHYTOSTEROLS AND/OR PHYTOSTANOLS FOR USE IN TREATING OR PREVENTING CARDIOVASCULAR DISEASE” (Forbes Medi-Tech Inc., priority 1999, dated 2000).
# Assays:
# apo E-KO mice = assay: Plasma triglyceride levels in apo E-KO mice fed experimental diets; format: in vivo; conditions: compounds in diet
# Protocol: Thus, as outlined below, 40 male apo E-KO mice were divided into 5 groups of 8 with similar mean plasma cholesterol level and body weight. The animals were fed with the experimental diets for 14 weeks.
# The animals were bled from the tail at base line and during the experiment for measurement of plasma lipid levels. At the end of the study, the mice were sacrificed using CO2 gas and taking blood from the heart.
# Plasma triglyceride levels were measured in clinical lab At St. Paul's Hospital.
# [1] = in vivo; cited from earlier work
smiles,measurement,setting,value
O=C(O)c1cccnc1 [nicotinic acid],effect on plasma triglyceride levels,apo E-KO mice,reduced triglyceride levels
same,"elevation of the ""good"" HDL cholesterol",[1],20-30%
